Measurements reported in patent publication US9782464B2, “Methods and compositions for inhibiting diseases of the central nervous system” (Board of Regents of the University of Nebraska, priority 2008, dated 2017).

Experiments:
MES23.5 cells = test: Cathepsin B inhibition and neurotoxicity, microglial supernatants on MES23.5 cells; format: cell-based; settings: inhibitor 1 μM, N-α-syn 100 nM
Procedure: MES 23.5 cells were cultured in 75-cm^2 flasks in DMEM/F12 with 15 mM HEPES (Invitrogen) containing N2 supplement (Invitrogen), 100 U/ml of penicillin, 100 μg/ml streptomycin, and 5% FBS. MES23.5 cells is a cell line derived using somatic cell fusion of rat embryonic mesencephalon cells and the murine neuroblastoma-glioma cell line N18TG2 that produce dopamine and express tyrosine hydroxylase (Crawford et al. (1992) J. Neuroscience 12:3392-3398). Cells were grown to 80% confluence then plated at a density of 10×10^4 cells on sterile glass coverslips. Microglia were plated in 6 well plates and incubated for 1 hour with or without 1 μM of cathepsin B inhibitors, CA-074 [cell impermeable] or CA-074 Me [cell permeable] (Sigma), in a 37° C., 5% CO2 incubator to inhibit residual cathepsin B expression (Gan et al. (2004) J. Biol. Chem., 279:5565-5572). […] MES 23.5 cell viability was assessed using the Live/Dead cytotoxicity assay (Invitrogen) as previously described. Live cells were distinguished by the uptake of calcein AM to acquire a green fluorescence [excitation/emission (ex/em) 495/515 nm], while dead cells acquired a red fluorescence (ex/em 495/635 nm) due to the uptake of ethidium homodimer-1 (EthD-1). Cell enumerations were performed using fluorescence microscopy (200× magnification, n=6 wells per group, 3 frames per well).

B6 SOD1 Tg mice = test: COP-1 immunization of B6 SOD1 Tg mice
TH+ neurons in the SN = test: Chronic MPTP intoxication, TH+ neuron counts in SN of WT and SCID mice; format: in vivo, mouse
Procedure: For chronic intoxication, B6 mice received 5 intraperitoneal (i.p.) injections at 24 hour intervals for 5 days of either vehicle (PBS, 10 ml/kg) or MPTP-HCl (30 mg/kg of free base in PBS) (Sigma-Aldrich, St. Louis, Mo.). For acute intoxication, mice received 4 i.p. injections, one every 2 hours, of either vehicle (PBS, 10 ml/kg) or MPTP-HCl (18 mg/kg of free base in PBS for B10.BR mice, 14 or 18 mg/kg for B6 mice). At selected time points following MPTP intoxication, mice were sacrificed and brains processed for subsequent analyses. MPTP handling and safety measures were in accordance with published guidelines (Przedborski et al. (2001) J. Neurochem., 76:1265-1274).
At the time points indicated following MPTP intoxication, mice were transcardially perfused with 4% paraformaldehyde (PFA) in 0.1 M PBS using 0.9% saline as vascular rinse. Brains were post-fixed in 4% PFA overnight, kept in 30% sucrose for 2 days, snap frozen, embedded in OCT compound, and […] sections cut on a cryostat (CM1900, Leica, Bannockburn, Ill.). The sections were collected in PBS and processed free-floating. […] Fluoro-Jade C (Chemicon International, Inc., Temecula, Calif.) was used to stain degenerating neurons (Schmued et al. (2005) Brain Res., 1035:24-31) and was detected as green fluorescence by fluorescence microscopy with FITC filter (Eclipse E800, Nikon, Inc., Melville, N.Y.). […]

[1] = tested on: MPTP-intoxicated B10.BR mice; test: Adoptive transfer of immune SPC or T cells to MPTP-treated B10.BR mice; format: in vivo, mouse
MPTP-intoxicated B6 mice = test: Adoptive transfer of immune SPC to MPTP-treated B6 mice; format: in vivo, mouse; settings: day 7
MPTP-intoxicated mice [2] = test: Adoptive transfer of N-4YSyn and VIP SPC or Treg to MPTP-intoxicated mice (Example 6); format: in vivo, mouse
Procedure: (§1) Recombinant C-terminal tail of α-syn (4YSyn) was purified, nitrated (N-4YSyn), and tested for endotoxin as described. Male C57BL/6J mice and FoxP3-GFP knock in C57BL/6J mice (5 weeks old, The Jackson Laboratory) were immunized with N-4YSyn emulsified in adjuvant as described. […] Recipient mice received four i.p. injections at 2 hour intervals of either vehicle (PBS, 10 mL/kg bodyweight) or MPTP-HCl (16 mg MPTP/kg bodyweight of free base in PBS; Sigma-Aldrich). Twelve hours after the last injection, MPTP-intoxicated mice received adoptive transfers of whole SPC, Treg or no cells (n=5-7 mice per group per time point). On days 2 and 7 post-MPTP, mice were sacrificed and brains were processed for analysis. […] MPTP safety measures were in accordance with published guidelines (Przedborski et al. (2001) J. Neurochem., 76:1265-1274).
Seven days following treatment, mice were sacrificed and single cell suspensions were prepared from inguinal lymph nodes and spleens. CD4+ T cell populations from spleens and lymph nodes were enriched by negative selection with CD4-enrichment columns (R & D Systems) followed by CD25-PE positive selection with AutoMACS (Miltenyi Biotec). […] Proliferation and inhibition assays were performed as described. MPTP-intoxicated mice received an i.v. tail injection of 5×10^7 SPC or 1×10^6 Treg in 0.25 ml of HBSS.
Mice were transcardially-perfused with PBS followed by 4% paraformaldehyde (PFA, Sigma). Frozen midbrain sections (30 μm) were immunostained for Mac-1 (CD11b, 1:1000; Serotec). Fluorojade C staining (Millipore) was performed on adjacent sections according to manufacturer's protocol to assess degenerating neurons and quantified using ImageJ. Overall dopaminergic neuron survival was assessed seven days following MPTP intoxication and resolution of cell death processes with polyclonal antibody to mouse Tyrosine hydroxylase (TH), 1:1000 (Calbiochem) and counterstained for Nissl substance by thionin staining (Tieu et al. (2003) J. Clin. Invest., 112:892-901) as previously described (Benner et al. (2004) Proc. Natl. Acad. Sci., 101:9435-9440). Total numbers of Mac-1^+ cells, […] and Nissl-stained neurons in the SNpc were estimated by stereological analysis with StereoInvestigator software (MicroBrightfield) using the optical fractionator module (Liberatore et al. (1999) Nat. Med., 5:1403-1409). Quantitation of striatal TH (1:500; Calbiochem) was performed by densitometric analysis as described (Benner et al. (2004) Proc. Natl. Acad. Sci., 101:9435-9440). Adjacent midbrain sections were immunostained for CD4 (L3T4; 1:200, BD Pharmingen). Sections were incubated in streptavidin-horseradish peroxidase (HRP) solution (ABC Elite vector kit, Vector Laboratories), and color developed using a generation system consisting of diaminobenzidine (DAB) chromogen (Sigma-Aldrich) as described (Benner et al. (2004) Proc. Natl. Acad. Sci., 101:9435-9440).

MPTP-intoxicated mice [3] = test: Adoptive transfer of polarized N-4YSyn CD4+ T cell subsets to MPTP-intoxicated mice; format: in vivo, mouse; settings: 7 days after MPTP
Procedure: as §1
CD4+ T cells were isolated from N-4YSyn immunized donors and cultured 1×10^6/ml CD4+ T cells with 2×10^6/ml irradiated SPC and […] N-4YSyn in 20 ml of complete RPMI 1640 supplemented with 10% FBS, 2 mM L-glutamine, 10 mM HEPES, 55 μm 2-mercaptoethanol, 100 units/ml penicillin, and 100 μg/ml streptomycin in T25 flasks. […]
Mice were transcardially-perfused with PBS followed by 4% paraformaldehyde (PFA, Sigma). […] Fluorojade C staining (Millipore) was performed on adjacent sections according to manufacturer's protocol to assess degenerating neurons and quantified using ImageJ. Overall dopaminergic neuron survival was assessed seven days following MPTP intoxication and resolution of cell death processes with polyclonal antibody to mouse Tyrosine hydroxylase (TH), 1:1000 (Calbiochem) and counterstained for Nissl substance by thionin staining (Tieu et al. (2003) J. Clin. Invest., 112:892-901) as previously described (Benner et al. (2004) Proc. Natl. Acad. Sci., 101:9435-9440). […] Quantitation of striatal TH (1:500; Calbiochem) was performed by densitometric analysis as described (Benner et al. (2004) Proc. Natl. Acad. Sci., 101:9435-9440). […]

SPC (spleen cells) = test: Antigen-specific 3H-thymidine proliferation of SPC from immunized mice; format: cell-based, mouse; settings: B10.BR mice immunized in CFA/IFA
[4] = tested on: anti-CD3 stimulated T cells; test: Proliferation of anti-CD3 activated T cells with 4YSyn or N-4YSyn; format: cell-based, mouse; settings: 1, 3, 10 and 30 μg/ml
Procedure: For proliferation analyses, purified T cells from naive B6 mice were plated with SPC irradiated at 3000 rad (1:3) at 2×10^6 cells/ml in complete RPMI tissue culture media and activated with anti-CD3 (0.5 μg/ml, 145-2C11; BD Pharmingen) in U-bottom 96-well tissue culture plates. Graded concentrations of 4YSyn or N-4YSyn were added to quadruplicate wells. After activation for 3 days, ^3H-thymidine incorporation was performed as described previously.

[5] = tested on: anti-CD3 stimulated T cells; test: PI uptake cytotoxicity of anti-CD3 stimulated T cells (flow cytometry); format: cell-based, mouse; settings: 24 hours
Procedure: To assess α-Syn-mediated cytotoxicity, purified T cells were stimulated with anti-CD3 and cultured at a density of 1×10^6 cells/ml for 24 hours in media alone or in the presence of 4YSyn or N-4YSyn at concentrations of 1, 3, 10, or 30 μg/ml. Cells were stained with PI, washed and the percentages of PI^+ dead cells and MFI were analyzed by flow cytometry.

CCCNC(=O)[C@H]1O[C@@H]1C(=O)N[C@H](C(=O)N1CCC[C@H]1C(=O)O)[C@@H](C)CC [CA-074]
protection of DA cells v. N-α-syn alone (MES23.5 cells): 53%

glatiramer acetate [COP-1]
increase of mean age of survival compared to PBS controls (B6 SOD1 Tg mice; 75 μg s.c. every other week): 6.1% | increase of mean age of survival compared to PBS controls (B6 SOD1 Tg mice; 75 μg s.c. weekly): 9.9%

CN1CC=C(c2ccccc2)CC1 [MPTP, 1-methyl-4-phenyl-1,2,3,6-tetrahydropyridine]
numbers of TH+ neurons compared to PBS (TH+ neurons in the SN; SCID mice): No significant difference | reduction in numbers of TH+ neurons in the SN compared to PBS (TH+ neurons in the SN; WT B6 mice, 21 days after last injection): 33% | reduction of SN TH+ neurons compared to PBS controls ([1]; MPTP-treated B10.BR mice, stereology): 45% | Counts of Mac-1+ microglia ([1]; SN of MPTP-treated B10.BR mice, mean±SEM): 27.7±3.2 /mm^2 | loss of TH+ nigral neurons compared to PBS-treated controls (MPTP-intoxicated B6 mice): 43% | increase in numbers of Mac-1+ cells within the SNpc compared with PBS controls (MPTP-intoxicated mice [2]; 2 days post-MPTP): greater than 16 fold | loss of nigral TH+ neurons compared with PBS controls (MPTP-intoxicated mice [2]; 7 days after MPTP, FIG. 35C): 45% | reduction of SNpc TH+ neurons compared with PBS controls (MPTP-intoxicated mice [2]; 7 days after MPTP, FIG. 38B): 48% | Striatal TH+ density (MPTP-intoxicated mice [2]; 7 days after MPTP, FIG. 38C): 16 % of PBS controls | TH+ neuron survival (MPTP-intoxicated mice [2]; MPTP mice, FIG. 38D, Treg co-transferred with N-4YSyn SPC): 49% | TH density within the striatum (MPTP-intoxicated mice [3]): 26 % of PBS-treated controls | loss of TH+ neurons vs PBS-treated controls (MPTP-intoxicated mice [3]): 25% | total TH+ neurons within the SNpc (MPTP-intoxicated mice [3]): 5971±250

4YSyn: recombinant His-tagged C-terminal 40 aa α-Syn fragment containing all four tyrosine residues, non-nitrated
proliferative response of SPC to in vitro stimulation with the antigen (SPC (spleen cells)): no significant immune responses | proliferation of anti-CD3 stimulated T cells [4]: not inhibited | % PI+ T cells ([5]; 1 μg/ml): 4.9% | MFI of PI-stained T cells ([5]; 1 μg/ml): 32.3 | % PI+ T cells ([5]; 3 μg/ml): 6% | MFI of PI-stained T cells ([5]; 3 μg/ml): 34.1 | % PI+ T cells ([5]; 10 μg/ml): 4.7% | MFI of PI-stained T cells ([5]; 10 μg/ml): 25.2 | % PI+ T cells ([5]; 30 μg/ml): 4.2% | MFI of PI-stained T cells ([5]; 30 μg/ml): 26.8
